Data from patent US20250115654A1, “PHARMACEUTICAL COMPOSITION OF GLP-1 RECEPTOR AND GIP RECEPTOR DUAL AGONIST, AND USE THEREOF” (FUJIAN SHENGDI PHARMACEUTICAL CO., LTD., priority 2021, published 2025).
Numbered stars: 1 amine (or outer) side, 2 acyl side, 3 side chain; on linkers, the order of the positions; unused ones are H or OH. Square brackets hold non-standard residues; d marks the D form. Side chains are listed from the residue outwards. Peptide text beside a SMILES is read from it. * marks the point of attachment. C20 diacid = O=C(O)CCCCCCCCCCCCCCCCCCC(=O)*; γGlu = O=C(O)[C@H](CCC(=O)[*:2])N[*:1]; AEEA = NCCOCCOCC(=O)O; Aib = CC(C)(N)C(=O)O

Tests used:
[1] = tested on: DIO mice; assay: Food intake of DIO (diet-induced obesity) mice; assay type: in vivo, C57BL/6 mice; conditions: 100 nmol/kg
Method: High-fat food-induced-obesity male C57BL/6 mice (weighing 35-55 g, aged 10-12 weeks, purchased from Shanghai Jiesijie Laboratory Animal Co., Ltd.) were tested. […] According to the experimental design, the body weight of each mouse was measured and recorded on day 0, day 3, day 6, and so on to day 27, the average body weight of each group of mice was calculated, and body weight change curves were plotted by taking the body weight on the first day as the standard. At the end, the fat and other visceral organs of each part of the mice were taken out and weighed, and the viscera/brain ratio for fat in each part of each mouse was calculated. The effect of the drug on the fat was determined by comparing the change in the viscera/brain ratio for fat of different parts of each group of mice.
The food intake of mice in each group was measured daily during the experiment.

[2] = tested on: db/db mice; assay: Glucose metabolism level of db/db mice (fasting and random blood glucose, glycated hemoglobin); assay type: in vivo, C57BL/KsJ-db/db mice; conditions: for Glycated hemoglobin (%, mean ± SD): end of experiment day 28
Method: Each administration group had 10 db/db mice. According to the experimental design, tail vein blood was collected by needle pricking on days 0, 7, 14, 21, and 28 and determined for fasting blood glucose levels with a glucometer and glucose dipsticks, and the mice were fasted 6 h prior to the blood collection at each time point. Tail vein blood was collected by needle pricking on days 3, 10, 17, 24, and 27 and randomly determined for blood glucose levels with a glucometer. Finally, at the end of the experiment on day 28, all the animals in the administration groups were subjected to 2-5% isoflurane inhalation anesthesia, and 100 μL of whole blood was collected through the orbit of each mouse using an EDTA-K2 anticoagulation tube and used for the determination of glycated hemoglobin.

[3] = molecular target: human GLP-1R (Homo sapiens, UniProt P43220); assay: Agonist activity against GLP-1R, cAMP HTRF in CHO-K1/GLP-1R/CRE-luc stable cells; conditions: Activity against human GLP-1R (EC50 nM), Table 6 run
human GLP-1R, sequence (P43220 24-463): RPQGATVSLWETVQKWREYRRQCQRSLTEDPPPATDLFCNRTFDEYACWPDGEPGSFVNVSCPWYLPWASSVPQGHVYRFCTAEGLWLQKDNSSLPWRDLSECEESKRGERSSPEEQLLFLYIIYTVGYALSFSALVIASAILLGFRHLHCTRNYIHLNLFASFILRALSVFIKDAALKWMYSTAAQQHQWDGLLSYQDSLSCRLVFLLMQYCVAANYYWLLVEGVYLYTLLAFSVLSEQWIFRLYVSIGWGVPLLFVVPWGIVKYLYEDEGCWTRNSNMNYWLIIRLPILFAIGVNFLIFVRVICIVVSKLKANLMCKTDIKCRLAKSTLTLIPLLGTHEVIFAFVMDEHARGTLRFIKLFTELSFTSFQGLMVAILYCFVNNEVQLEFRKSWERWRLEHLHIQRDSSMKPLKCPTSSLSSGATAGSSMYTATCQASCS

## CC[C@H](C)[C@H](NC(=O)[C@H](CCCCN)NC(=O)[C@H](CCC(=O)O)NC(=O)[C@H](CCCCNC(=O)COCCOCCNC(=O)COCCOCCNC(=O)CC[C@H](NC(=O)CCCCCCCCCCCCCCCCCCC(=O)O)C(=O)O)NC(=O)[C@H](Cc1ccc(O)cc1)NC(=O)[C@@H](NC(=O)[C@H](CO)NC(=O)[C@H](Cc1ccc(O)cc1)NC(=O)[C@H](CC(=O)O)NC(=O)[C@H](CO)NC(=O)[C@@H](NC(=O)[C@H](Cc1ccccc1)NC(=O)[C@@H](NC(=O)CNC(=O)[C@H](CCC(=O)O)NC(=O)C(C)(C)NC(=O)[C@@H](N)Cc1ccc(O)cc1)[C@@H](C)O)[C@@H](C)O)[C@@H](C)CC)C(=O)N[C@@H](C)C(=O)N[C@@H](C)C(=O)N[C@@H](CCC(N)=O)C(=O)N[C@@H](CCC(=O)O)C(=O)N[C@@H](Cc1ccccc1)C(=O)N[C@H](C(=O)N[C@@H](CC(N)=O)C(=O)N[C@@H](Cc1c[nH]c2ccccc12)C(=O)N[C@@H](CC(C)C)C(=O)N[C@@H](CC(C)C)C(=O)N[C@@H](C)C(=O)NCC(=O)NCC(=O)N1CCC[C@H]1C(=O)N[C@@H](CO)C(=O)N[C@@H](CO)C(=O)NCC(=O)N[C@@H](C)C(=O)N1CCC[C@H]1C(=O)N1CCC[C@H]1C(=O)N1CCC[C@H]1C(=O)N[C@@H](CO)C(N)=O)C(C)C [Compound 18#] (H-Y[Aib]EGTFTSDYSIYK([AEEA-AEEA-γGlu-C20 diacid])EKIAAQEFVNWLLAGGPSSGAPPPS-NH2)
[1]; 28 days after the administration
  cumulative food intake: 36.7 g
[1]; day 1 after administration
  daily food intake ration: 0.2 ± 0.1 g
[1]; day 1 after administration, listed as 18#
  daily food intake ration: 0.2 g
[1]; day 2 after administration
  daily food intake ration: 0.1 ± 0.1 g
[1]; day 3 after administration
  daily food intake ration: 0.4 ± 0.1 g
[1]; day 4 after administration
  daily food intake ration: 0.4 ± 0.2 g
[1]; day 5 after administration
  daily food intake ration: 0.6 ± 0.2 g
[1]; day 6 after administration
  daily food intake ration: 0.7 ± 0.3 g
[1]; day 7 after administration
  daily food intake ration: 0.5 ± 0.2 g
[1]; day 8 after administration
  daily food intake ration: 0.7 ± 0.5 g
[1]; day 9 after administration
  daily food intake ration: 0.9 ± 0.6 g
[1]; day 10 after administration
  daily food intake ration: 0.9 ± 0.6 g
[1]; day 11 after administration
  daily food intake ration: 1.1 ± 0.5 g
[1]; day 12 after administration
  daily food intake ration: 2 ± 1 g
[1]; day 13 after administration
  daily food intake ration: 1.3 ± 0.7 g
[1]; day 14 after administration
  daily food intake ration: 1.7 ± 0.5 g
[1]; day 15 after administration
  daily food intake ration: 2 ± 0.4 g
[1]; day 16 after administration
  daily food intake ration: 1 ± 0.3 g
[1]; day 17 after administration
  daily food intake ration: 1.6 ± 0.3 g
[1]; day 18 after administration
  daily food intake ration: 2 ± 0.4 g
[1]; day 19 after administration
  daily food intake ration: 1.4 ± 0.2 g
[1]; day 20 after administration
  daily food intake ration: 1.8 ± 0.3 g
[1]; day 21 after administration
  daily food intake ration: 2.4 ± 0.3 g
[1]; day 22 after administration
  daily food intake ration: 1.4 ± 0.5 g
[1]; day 23 after administration
  daily food intake ration: 2.1 ± 0.5 g
[1]; day 24 after administration
  daily food intake ration: 2.3 ± 0.4 g
[1]; day 25 after administration
  daily food intake ration: 1.5 ± 0.3 g
[1]; day 26 after administration
  daily food intake ration: 1.6 ± 0.4 g
[1]; day 27 after administration
  daily food intake ration: 2.8 ± 0.3 g
[1]; day 28 after administration
  daily food intake ration: 1.2 ± 0.4 g
[1]; within 5 days after the administration
  cumulative food intake: 1.8 g
[2]; 10 nmol/kg, Day 0
  Concentration of fasting blood glucose (mMol/L, mean ± SD): 14.77 ± 1.30 mmol/L
  Concentration of random blood glucose (mMol/L, mean ± SD): 20.42 ± 1.56 mmol/L
[2]; 10 nmol/kg, Day 7
  Concentration of fasting blood glucose (mMol/L, mean ± SD): 6.05 ± 0.42 mmol/L
[2]; 10 nmol/kg, Day 10
  Concentration of random blood glucose (mMol/L, mean ± SD): 20.66 ± 1.48 mmol/L
[2]; 10 nmol/kg, Day 14
  Concentration of fasting blood glucose (mMol/L, mean ± SD): 6.30 ± 0.46 mmol/L
[2]; 10 nmol/kg, Day 17
  Concentration of random blood glucose (mMol/L, mean ± SD): 18.91 ± 1.33 mmol/L
[2]; 10 nmol/kg, Day 21
  Concentration of fasting blood glucose (mMol/L, mean ± SD): 7.89 ± 0.81 mmol/L
[2]; 10 nmol/kg, Day 24
  Concentration of random blood glucose (mMol/L, mean ± SD): 21.17 ± 2.07 mmol/L
[2]; 10 nmol/kg, Day 28
  Concentration of fasting blood glucose (mMol/L, mean ± SD): 9.41 ± 0.97 mmol/L
[2]; 10 nmol/kg
  Glycated hemoglobin (%, mean ± SD): 4.71 ± 0.23 %
[2]; 30 nmol/kg, Day 0
  Concentration of fasting blood glucose (mMol/L, mean ± SD): 14.13 ± 1.32 mmol/L
  Concentration of random blood glucose (mMol/L, mean ± SD): 16.73 ± 1.59 mmol/L
[2]; 30 nmol/kg, Day 7
  Concentration of fasting blood glucose (mMol/L, mean ± SD): 6.21 ± 0.26 mmol/L
[2]; 30 nmol/kg, Day 10
  Concentration of random blood glucose (mMol/L, mean ± SD): 15.88 ± 1.86 mmol/L
[2]; 30 nmol/kg, Day 14
  Concentration of fasting blood glucose (mMol/L, mean ± SD): 6.40 ± 0.57 mmol/L
[2]; 30 nmol/kg, Day 17
  Concentration of random blood glucose (mMol/L, mean ± SD): 17.30 ± 1.17 mmol/L
[2]; 30 nmol/kg, Day 21
  Concentration of fasting blood glucose (mMol/L, mean ± SD): 7.03 ± 0.52 mmol/L
[2]; 30 nmol/kg, Day 24
  Concentration of random blood glucose (mMol/L, mean ± SD): 17.43 ± 1.92 mmol/L
[2]; 30 nmol/kg, Day 28
  Concentration of fasting blood glucose (mMol/L, mean ± SD): 9.68 ± 1.03 mmol/L
[2]; 30 nmol/kg
  Glycated hemoglobin (%, mean ± SD): 4.53 ± 0.17 %
[2]; 100 nmol/kg, Day 0
  Concentration of fasting blood glucose (mMol/L, mean ± SD): 14.67 ± 1.46 mmol/L
  Concentration of random blood glucose (mMol/L, mean ± SD): 9.11 ± 1.25 mmol/L
[2]; 100 nmol/kg, Day 7
  Concentration of fasting blood glucose (mMol/L, mean ± SD): 5.85 ± 0.33 mmol/L
[2]; 100 nmol/kg, Day 10
  Concentration of random blood glucose (mMol/L, mean ± SD): 12.34 ± 1.12 mmol/L
[2]; 100 nmol/kg, Day 14
  Concentration of fasting blood glucose (mMol/L, mean ± SD): 6.25 ± 0.32 mmol/L
[2]; 100 nmol/kg, Day 17
  Concentration of random blood glucose (mMol/L, mean ± SD): 11.89 ± 1.15 mmol/L
[2]; 100 nmol/kg, Day 21
  Concentration of fasting blood glucose (mMol/L, mean ± SD): 6.13 ± 0.19 mmol/L
[2]; 100 nmol/kg, Day 24
  Concentration of random blood glucose (mMol/L, mean ± SD): 11.51 ± 0.95 mmol/L
[2]; 100 nmol/kg, Day 28
  Concentration of fasting blood glucose (mMol/L, mean ± SD): 7.89 ± 0.41 mmol/L
[2]; 100 nmol/kg, listed as 18#
  Glycated hemoglobin (%, mean ± SD): 3.78%
[2]; 100 nmol/kg, listed as #18
  Glycated hemoglobin (%, mean ± SD): 3.78 ± 0.13 %
[3]
  EC50: 0.013 nM
